The text below walks through data of patent US20260226071A1, “2, 4-DIANILINOPYRIMIDINE-BASED AURORA-A KINASE SELECTIVE DEGRADATION INDUCING COMPOUNDS” (UPPTHERA, INC., priority 2023, published 2026).

One assay has as its system NCI-H446 cell line. The experiment in a line: Cell viability assay for NCI-H446 cell line. It counts as cell-based. The conditions noted are these: Homo sapiens, NCI-H446, 120 h; H446 cells, 5 days culture, EZ-Cytox; read-out: IC50 value (Level). The text has this:
The NCI-H446 (hereafter H446) cell lines were provided from American Type Culture Collection (ATCC). For cell culture, RPMI medium 1640 (Gibco, Cat. No. 22400-089; Lot. No. 2522717), FBS (Gibco, Cat. No. 16000-044; Lot. No. 2716756P), Penicillin/Streptomycin (PS) (Gibco, Cat. No. 15140-122; Lot. No. 2585636), 75T cell culture flask (SPL, Cat. No. 70075), 96 well cell culture plate (SPL, Cat. No. 30096), PBS pH 7.4 (Gibco, Cat. No. 10010-023; Lot. No. 2561466), TrypLE™ Express (Gibco, Cat. No. 12605-010; Lot. No. 2492811), counting chamber (hematocytometer) (Hirschmann, Cat. No. 8100204) and 0.4% Trypan Blue solution (DYNEBIO, Cat. No. CBT3710; Lot. No. 20231017) were used. Cells were cultured in RPMI 1640 medium supplemented with 10% FBS and 1% PS and incubated at 37° C., 5% CO2 condition in CO2 incubator (ThermoScientific, Cat. No. 4111).
For experiment, the present compounds were fully dissolved in DMSO (Sigma-Aldrich Cat. No. D2438, Lot. No. RNBL7287.
In each well of 96-well cell culture plate, […] cells of H446 cell lines were seeded in 150 μl of total medium volume. After 24 hours of cell seeding, the present compounds were treated.
The present compounds were each diluted 3-folds from the highest concentration of 1000 nM to the lowest concentration of 0.15 nM. The compound was added to each well to make the total volume of […] and the cells were cultured for 5 days in CO2 incubator (Thermo Fisher Science, Cat. No. 4111).
Thereafter, 20 μl of EZ-Cytox (DOGEN, Cat. NO. EZ-3000, Lot. No. DLS2308) was added to each well and the cells were cultured for 4 hours at the same condition in CO2 incubator. After culture, the absorbance of the sample was measured by setting the wavelength of a plate reader (BMG Labtech, CLARIOstar Plus) to […]. The samples were shaked for 2 minutes in the plate reader before measurement.

The target in the next assay is T1, Aurora kinase A (AURKA) (Homo sapiens, UniProt O14965).
T1 construct: endogenous in cells; host or cells: HeLa LgBit (AURKA-HiBit KI), CRISPR/Cas9 knock-in at the endogenous AURKA locus
T1 sequence (O14965 1-403): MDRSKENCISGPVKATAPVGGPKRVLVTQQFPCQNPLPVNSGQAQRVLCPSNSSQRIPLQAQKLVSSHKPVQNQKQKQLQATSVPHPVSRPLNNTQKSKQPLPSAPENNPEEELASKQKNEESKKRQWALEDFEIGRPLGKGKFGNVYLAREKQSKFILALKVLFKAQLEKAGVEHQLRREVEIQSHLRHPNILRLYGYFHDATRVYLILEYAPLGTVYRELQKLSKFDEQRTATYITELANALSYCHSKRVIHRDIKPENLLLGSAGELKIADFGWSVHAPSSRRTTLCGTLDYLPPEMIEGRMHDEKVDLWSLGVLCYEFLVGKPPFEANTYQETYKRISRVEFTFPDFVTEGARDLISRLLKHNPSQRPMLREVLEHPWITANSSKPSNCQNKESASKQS
Description: Luciferase assay for AURKA in HeLa LgBit (AURKA-HiBit KI) cell line. It counts as cell-based. The conditions noted are these: HeLa LgBit (AURKA-HiBit KI) cells, measured after 12 hours. A digest of the protocol: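 Test compounds (10 nM or 100 nM) added to AURKA-HiBit knock-in HeLa LgBit cells that had been pre-loaded with Endurazine for 2 h following an 18 h culture at 3×10^4 cells. Endogenous AURKA-HiBit level followed by luminescence (470-480 nm), measured after 12 h.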
(HiBiT is a short tag that completes a luciferase, so light tracks the accessible tagged protein.)

With `O=C1CCC(c2ccc(N3CCC(CN4CCN(C(=O)Cc5ccc(Nc6ncc(F)c(Nc7ccc(C(=O)Nc8ccccc8Cl)cc7)n6)cc5)CC4)CC3)cc2)C(=O)N1` (stereo not drawn) [Compound 1, N-(2-chlorophenyl)-4-((2-((4-(2-(4-((1-(4-(2,6-dioxopiperidin-3-yl)phenyl)piperidin-4-yl)methyl)piperazin-1-yl)-2-oxoethyl)phenyl)amino)-5-fluoropyrimidin-4-yl)amino)benzamide], in the assay on NCI-H446 cell line, the IC50 (commonly the midpoint of a concentration-inhibition curve) was in the range of 100 to 150 nM. The figures for the “luminescence value (Level)” value at Aurora kinase A (AURKA) (10 nM compound) and on Aurora kinase A (AURKA) (100 nM compound) were “C (C is 0.5 to 0.7)” and “A (A is <0.2)”, respectively.

As for `O=C1CCC(c2ccc(N3CCN(CC4CCN(C(=O)c5ccc(Nc6ncc(F)c(Nc7ccc(C(=O)Nc8ccccc8Cl)cc7)n6)cc5)CC4)CC3)cc2)C(=O)N1` (stereo not drawn) [Compound 3, N-(2-chlorophenyl)-4-((2-((4-(4-((4-(4-(2,6-dioxopiperidin-3-yl)phenyl)piperazin-1-yl)methyl)piperidine-1-carbonyl)phenyl)amino)-5-fluoropyrimidin-4-yl)amino)benzamide], the IC50 in the assay with NCI-H446 cell line was 50 to 100 nM. Moreover, the figures for the “luminescence value (Level)” value at Aurora kinase A (AURKA) (10 nM compound) and on Aurora kinase A (AURKA) (100 nM compound) were “C (C is 0.5 to 0.7)” and “A (A is <0.2)”, respectively.

For `CN(CC1CCN(c2ccc(C3CCC(=O)NC3=O)cc2)CC1)C1CCC(NC(=O)c2ccc(Nc3ncc(F)c(Nc4ccc(C(=O)Nc5ccccc5Cl)cc4)n3)cc2)CC1` (stereo not drawn) [Compound 4, N-(2-chlorophenyl)-4-((2-((4-((4-(((1-(4-(2,6-dioxopiperidin-3-yl)phenyl)piperidin-4-yl)methyl)(methyl)amino)cyclohexyl)carbamoyl)phenyl)amino)-5-fluoropyrimidin-4-yl)amino)benzamide], the IC50 with NCI-H446 cell line fell in the range of 100 to 150 nM. In addition, the “luminescence value (Level)” value at Aurora kinase A (AURKA) (10 nM compound) is recorded as “C (C is 0.5 to 0.7)”; on Aurora kinase A (AURKA) (100 nM compound), “A (A is <0.2)”.

With `O=C1CCC(c2ccc(N3CCN(CC(=O)N4CCC(NC(=O)c5ccc(Nc6ncc(F)c(Nc7ccc(C(=O)Nc8ccccc8Cl)cc7)n6)cc5)CC4)CC3)cc2)C(=O)N1` (stereo not drawn) [Compound 5, N-(2-chlorophenyl)-4-((2-((4-((1-(2-(4-(4-(2,6-dioxopiperidin-3-yl)phenyl)piperazin-1-yl)acetyl)piperidin-4-yl)carbamoyl)phenyl)amino)-5-fluoropyrimidin-4-yl)amino)benzamide], the IC50 in the assay with NCI-H446 cell line is below 50 nM. The entries for the “luminescence value (Level)” value at Aurora kinase A (AURKA) (10 nM compound) and at Aurora kinase A (AURKA) (100 nM compound) were “B (B is 0.3 to 0.5)” and “A (A is <0.2)”, respectively.

As to `CC(CN1CCN(c2ccc(C3CCC(=O)NC3=O)cc2)CC1)C1CCN(NC(=O)c2ccc(Nc3ncc(F)c(Nc4ccc(C(=O)Nc5ccccc5Cl)cc4)n3)cc2)CC1` (stereo not drawn) [Compound 6, N-(2-chlorophenyl)-4-((2-((4-((4-(1-(4-(4-(2,6-dioxopiperidin-3-yl)phenyl)piperazin-1-yl)propan-2-yl)piperidin-1-yl)carbamoyl)phenyl)amino)-5-fluoropyrimidin-4-yl)amino)benzamide], in the assay on NCI-H446 cell line, the IC50 was below 50 nM. Besides, the “luminescence value (Level)” value at Aurora kinase A (AURKA) (10 nM compound) is reported as “B (B is 0.3 to 0.5)”; at Aurora kinase A (AURKA) (100 nM compound), “A (A is <0.2)”.

For `O=C1CCC(c2ccc(N3CCN(CCC4CCN(NC(=O)c5ccc(Nc6ncc(F)c(Nc7ccc(C(=O)Nc8ccccc8Cl)cc7)n6)cc5)CC4)CC3)cc2)C(=O)N1` (stereo not drawn) [Compound 7, N-(2-chlorophenyl)-4-((2-((4-((4-(2-(4-(4-(2,6-dioxopiperidin-3-yl)phenyl)piperazin-1-yl)ethyl)piperidin-1-yl)carbamoyl)phenyl)amino)-5-fluoropyrimidin-4-yl)amino)benzamide], the IC50 in the assay with NCI-H446 cell line is below 50 nM. Moreover, the “luminescence value (Level)” value on Aurora kinase A (AURKA) (10 nM compound) was “A (A is <0.3)”; on Aurora kinase A (AURKA) (100 nM compound) it was “A (A is <0.2)”.

For the compound `O=C1CCC(c2ccc(N3CC(CN4CCC(NC(=O)c5ccc(Nc6ncc(F)c(Nc7ccc(C(=O)Nc8ccccc8Cl)cc7)n6)cc5)CC4)C3)cc2)C(=O)N1` (stereo not drawn) [Compound 8, N-(2-chlorophenyl)-4-((2-((4-((1-((1-(4-(2,6-dioxopiperidin-3-yl)phenyl)azetidin-3-yl)methyl)piperidin-4-yl)carbamoyl)phenyl)amino)-5-fluoropyrimidin-4-yl)amino)benzamide], the 50% inhibitory concentration (IC50) with NCI-H446 cell line was below 50 nM. Also, the “luminescence value (Level)” value on Aurora kinase A (AURKA) (10 nM compound) is reported as “B (B is 0.3 to 0.5)”; at Aurora kinase A (AURKA) (100 nM compound), “A (A is <0.2)”.

As for `O=C1CCC(c2ccc(N3CCC(CN4CCC(NC(=O)c5ccc(Nc6ncc(F)c(Nc7ccc(C(=O)Nc8ccccc8Cl)cc7)n6)cc5)CC4)C3)cc2)C(=O)N1` (stereo not drawn) [Compound 9, N-(2-chlorophenyl)-4-((2-((4-((1-((1-(4-(2,6-dioxopiperidin-3-yl)phenyl)pyrrolidin-3-yl)methyl)piperidin-4-yl)carbamoyl)phenyl)amino)-5-fluoropyrimidin-4-yl)amino)benzamide], the concentration for half-maximal inhibition (IC50) in the assay with NCI-H446 cell line is below 50 nM. Moreover, the figures for the “luminescence value (Level)” value on Aurora kinase A (AURKA) (10 nM compound) and on Aurora kinase A (AURKA) (100 nM compound) were “B (B is 0.3 to 0.5)” and “A (A is <0.2)”, respectively.

Consider `O=C1CCC(c2ccc(N3CCC(CCC(=O)N4CCC(NC(=O)c5ccc(Nc6ncc(F)c(Nc7ccc(C(=O)Nc8ccccc8Cl)cc7)n6)cc5)CC4)CC3)cc2)C(=O)N1` (stereo not drawn) [Compound 12, N-(2-chlorophenyl)-4-((2-((4-((1-(3-(1-(4-(2,6-dioxopiperidin-3-yl)phenyl)piperidin-4-yl)propanoyl)piperidin-4-yl)carbamoyl)phenyl)amino)-5-fluoropyrimidin-4-yl)amino)benzamide], for which the IC50 in the assay with NCI-H446 cell line is below 50 nM. Also, the “luminescence value (Level)” value at Aurora kinase A (AURKA) (10 nM compound) is “B (B is 0.3 to 0.5)”; at Aurora kinase A (AURKA) (100 nM compound), “A (A is <0.2)”.

With `O=C1CCC(c2ccc(N3CCN(Cc4ccc(NC(=O)c5ccc(Nc6ncc(F)c(Nc7ccc(C(=O)Nc8ccccc8Cl)cc7)n6)cc5)cc4)CC3)cc2)C(=O)N1` (stereo not drawn) [Compound 13, N-(2-chlorophenyl)-4-((2-((4-((4-((4-(4-(2,6-dioxopiperidin-3-yl)phenyl)piperazin-1-yl)methyl)phenyl)carbamoyl)phenyl)amino)-5-fluoropyrimidin-4-yl)amino)benzamide], in the assay on NCI-H446 cell line, the IC50 is above 200 nM. Also, the “luminescence value (Level)” value on Aurora kinase A (AURKA) (10 nM compound) is recorded as “C (C is 0.5 to 0.7)”; at Aurora kinase A (AURKA) (100 nM compound), “B (B is 0.2 to 0.4)”.

For the compound `O=C1CCC(c2ccc(N3CCN(C[C@H]4CC[C@H](NC(=O)c5ccc(Nc6ncc(F)c(Nc7ccc(C(=O)Nc8ccccc8Cl)cc7)n6)cc5)CC4)CC3)cc2)C(=O)N1` (stereo partly drawn) [Compound 16, N-(2-chlorophenyl)-4-((2-((4-(((1r,4r)-4-((4-(4-(2,6-dioxopiperidin-3-yl)phenyl)piperazin-1-yl)methyl)cyclohexyl)carbamoyl)phenyl)amino)-5-fluoropyrimidin-4-yl)amino)benzamide], in the assay on NCI-H446 cell line, the IC50 lay in the range of 50 to 100 nM. Further, the figures for the “luminescence value (Level)” value at Aurora kinase A (AURKA) (10 nM compound) and on Aurora kinase A (AURKA) (100 nM compound) were “B (B is 0.3 to 0.5)” and “A (A is <0.2)”, respectively.

As to `O=C1CCC(c2ccc(N3CCN(CC[C@H]4CC[C@H](NC(=O)c5ccc(Nc6ncc(F)c(Nc7ccc(C(=O)Nc8ccccc8Cl)cc7)n6)cc5)CC4)CC3)cc2)C(=O)N1` (stereo partly drawn) [Compound 17, N-(2-chlorophenyl)-4-((2-((4-(((1r,4r)-4-(2-(4-(4-(2,6-dioxopiperidin-3-yl)phenyl)piperazin-1-yl)ethyl)cyclohexyl)carbamoyl)phenyl)amino)-5-fluoropyrimidin-4-yl)amino)benzamide], in the assay with NCI-H446 cell line, the IC50 is 50 to 100 nM. Moreover, the figures for the “luminescence value (Level)” value at Aurora kinase A (AURKA) (10 nM compound) and at Aurora kinase A (AURKA) (100 nM compound) were “A (A is <0.3)” and “A (A is <0.2)”, respectively.
